Drawing on US9452980B2, “Substituted benzamides” (Hoffmann-La Roche Inc., priority 2009, dated 2016), this text covers Ki for 23 compounds.

One may read the Ki as a measure of affinity in units of concentration, obtained from inhibition or displacement.

Assay [1] deals with mouse TAAR1 (Mus musculus (Mouse), UniProt Q923Y8). Nature of the assay: Radioligand binding assay on mouse TAAR1. Here is the method: (§1) For the construction of expression plasmids the coding sequences of human, rat and mouse TAAR1 were amplified from genomic DNA essentially as described by Lindemann et al.. The Expand High Fidelity PCR System (Roche Diagnostics) was used with 1.5 mM Mg^2+ and purified PCR products were cloned into pCR2.1-TOPO cloning vector (Invitrogen) following the instructions of the manufacturer. PCR products were subcloned into the pIRESneo2 vector (BD Clontech, Palo Alto, Calif.), and expression vectors were sequence verified before introduction in cell lines.
(§2) HEK293 cells (ATCC #CRL-1573) were cultured essentially as described by Lindemann et al. (2005). For the generation of stably transfected cell lines HEK293 cells were transfected with the pIRESneo2 expression plasmids containing the TAAR coding sequences (described above) with Lipofectamine 2000 (Invitrogen) according to the instructions of the manufacturer, and 24 hrs post transfection the culture medium was supplemented with 1 mg/ml G418 (Sigma, Buchs, Switzerland). After a culture period of about 10 d clones were isolated, expanded and tested for responsiveness to trace amines (all compounds purchased from Sigma) with the cAMP Biotrak Enzyme immunoassay (EIA) System (Amersham) following the non-acetylation EIA procedure provided by the manufacturer.
Radioligand Binding Assay on Mouse TAAR1
(§3) Membrane Preparation and Radioligand Binding.
(§4) HEK-293 cells stably expressing mouse TAAR1 were maintained at 37° C. and 5% CO2 in DMEM high glucose medium, containing fetal calf serum (10%, heat inactivated for 30 min at 56° C.), penicillin/streptomycin (1%), and 375 μg/ml geneticin (Gibco). Cells were released from culture flasks using trypsin/EDTA, harvested, washed twice with ice-cold PBS (without Ca^2+ and Mg^2+), pelleted at 1,000 rpm for 5 min at 4° C., frozen and stored at −80° C. Frozen pellets were suspended in 20 ml HEPES-NaOH (20 mM, pH 7.4) containing 10 mM EDTA and homogenized with a Polytron (PT 6000, Kinematica) at 14,000 rpm for 20 s. The homogenate was centrifuged at 48,000×g for 30 min at 4° C. Subsequently, the supernatant was removed and discarded, and the pellet resuspended in 20 ml HEPES-NaOH (20 mM, pH 7.4) containing 0.1 mM EDTA using the Polytron (20 s at 14,000 rpm). This procedure was repeated and the final pellet resuspended in HEPES-NaOH containing 0.1 mM EDTA and homogenized using the Polytron. Typically, aliquots of 2 ml membrane portions were stored at −80° C. With each new membrane batch the dissociation constant (Kd) was determined via a saturation curve. […] Nonspecific binding was defined as the amount of ^3[H]—(S)-4-[(ethyl-phenyl-amino)-methyl]-4,5-dihydro-oxazol-2-ylamine bound in the presence of 10 μM unlabeled ligand. All compounds were tested at a broad range of concentrations (10 pM to 10 μM) in duplicates. […] The 96 deep well plates were incubated for 1 hr at 4° C. Incubations were terminated by rapid filtration through Unifilter-96 plates (Packard Instrument Company) and glass filters GF/C (Perkin Elmer) presoaked for 1 hr in polyethylenimine (0.3%) and washed 3 times with 1 ml of cold binding buffer. After addition of 45 μl of Microscint 40 (PerkinElmer) the Unifilter-96 plate was sealed and after 1 hr the ratioactivity counted using a TopCount Microplate Scintillation Counter (Packard Instrument Company).

Assay [2] deals with rat TAAR1 (Rattus norvegicus (Rat), UniProt Q923Y9). Nature of the assay: Radioligand binding assay on rat TAAR1. How it is done:
as §1, §2
Radioligand Binding Assay on Rat TAAR1
as §3
as §4, with “rat” for “mouse”

Setting [3] is: mouse TAAR1, HEK-293 membranes, first value of cell mouse/rat, read-out: Ki (μM) mouse.
[4] abbreviates: rat TAAR1, HEK-293 membranes, second value of cell mouse/rat, read-out: Ki (μM) rat.

Where a name gives a salt, the structure may show the parent alone. Read-outs that look alike come from different tables or passages of the source.

rat TAAR1, sequence (Q923Y9 whole entry): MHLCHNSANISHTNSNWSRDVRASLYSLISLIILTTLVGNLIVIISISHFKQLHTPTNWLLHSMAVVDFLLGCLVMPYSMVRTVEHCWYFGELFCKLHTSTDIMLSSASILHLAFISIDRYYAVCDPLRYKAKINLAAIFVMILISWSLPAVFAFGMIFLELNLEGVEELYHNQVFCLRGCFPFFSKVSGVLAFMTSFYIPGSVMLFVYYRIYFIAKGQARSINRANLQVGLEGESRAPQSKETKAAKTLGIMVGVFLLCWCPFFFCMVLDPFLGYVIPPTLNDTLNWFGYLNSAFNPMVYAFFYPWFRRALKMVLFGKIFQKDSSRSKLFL
mouse TAAR1, sequence (Q923Y8 whole entry): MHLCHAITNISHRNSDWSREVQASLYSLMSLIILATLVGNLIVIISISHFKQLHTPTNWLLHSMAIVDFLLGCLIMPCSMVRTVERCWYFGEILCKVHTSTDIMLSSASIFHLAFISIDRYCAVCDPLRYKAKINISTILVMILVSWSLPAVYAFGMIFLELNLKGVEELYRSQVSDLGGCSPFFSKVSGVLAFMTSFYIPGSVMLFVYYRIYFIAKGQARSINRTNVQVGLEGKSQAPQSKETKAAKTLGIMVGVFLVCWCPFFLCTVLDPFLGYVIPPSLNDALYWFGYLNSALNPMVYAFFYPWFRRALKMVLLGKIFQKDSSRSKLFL

Turning to `CCCCc1ccc(NC(=O)Nc2ccc(C3CCNC3)cc2)c(C)c1` (racemic) [Example 1, (RS)-1-(4-Butyl-2-methyl-phenyl)-3-(4-pyrrolidin-3-yl-phenyl)-urea; hydrochloride], the values for the Ki in assay [1] (setting [3]) and in assay [2] (setting [4]) were 0.0056 µM and 0.0072 µM, respectively.
The corresponding values for `O=C(Nc1ccc(C2CCNC2)cc1)Nc1ccc(Cl)c(Cl)c1` (racemic) [Example 3, (RS)-1-(3,4-Dichloro-phenyl)-3-(4-pyrrolidin-3-yl-phenyl)-urea hydrochloride] are 0.0013 µM and 0.0016 µM.
The corresponding values for `O=C(Nc1ccc(Cl)cc1)Nc1ccc(C2CCNC2)cc1` (racemic) [Example 5, (RS)-1-(4-Chloro-phenyl)-3-(4-pyrrolidin-3-yl-phenyl)-urea hydrochloride] are 0.0015 µM and 0.0027 µM.
As for `O=C(Nc1ccccc1)Nc1ccc(C2CCNC2)cc1` (racemic) [Example 6, (RS)-1-Phenyl-3-(4-pyrrolidin-3-yl-phenyl)-urea hydrochloride], the Ki in assay [1] (setting [3]) is 0.0032 µM; in assay [2] (read-out: Ki (μM) rat), 0.0295 µM.
For the compound `O=C(Nc1ccc(C2CCNC2)cc1)Nc1ccc(Cl)cc1Cl` (racemic) [Example 7, (RS)-1-(2,4-Dichloro-phenyl)-3-(4-pyrrolidin-3-yl-phenyl)-urea hydrochloride], the Ki in assay [1] (setting [3]) came to 0.0028 µM; in assay [2] (setting [4]), 0.0036 µM.
On the same counts, the results for `O=C(Nc1ccc(C2CCNC2)cc1)Nc1cccc(Cl)c1` (racemic) [Example 8, (RS)-1-(3-Chloro-phenyl)-3-(4-pyrrolidin-3-yl-phenyl)-urea hydrochloride] are 0.0015 µM and 0.0044 µM.
Take `O=C(Nc1ccc(C2CCNC2)cc1)Oc1ccccc1` (racemic) [Example 11, (RS)-(4-Pyrrolidin-3-yl-phenyl)-carbamic acid phenyl ester hydrochloride]: the Ki is 0.0065 µM in assay [1] and 0.0315 µM in assay [2].
For `O=C(Nc1ccc(C2CCNC2)cc1)c1ccccc1` (racemic) [Example 13, (RS)—N-(4-Pyrrolidin-3-yl-phenyl)-benzamide hydrochloride], the Ki came out at 0.008 µM in assay [1] (setting [3]) and 0.0995 µM in assay [2] (setting [4]).
Turning to `O=C(Nc1ccc(C2CCNC2)cc1)Oc1ccc(F)cc1` (racemic) [Example 15, (RS)-(4-Pyrrolidin-3-yl-phenyl)-carbamic acid 4-fluoro-phenyl ester hydrochloride], the inhibitory constant (Ki) in assay [1] is 0.0021 µM; in assay [2] it was 0.0081 µM.
In the case of `O=C(Nc1ccc(C2CCNC2)cc1)c1ccc(Cl)cc1` (racemic) [Example 16, (RS)-4-Chloro-N-(4-pyrrolidin-3-yl-phenyl)-benzamide hydrochloride], the Ki in assay [1] (setting [3]) amounted to 0.0007 µM; in assay [2] (setting [4]), 0.0043 µM.
On the same counts, the results for `O=C(Cc1ccc(Cl)cc1)Nc1ccc(C2CCNC2)cc1` (racemic) [Example 17, (RS)-2-(4-Chloro-phenyl)-N-(4-pyrrolidin-3-yl-phenyl)-acetamide hydrochloride] are 0.0083 µM and 0.0363 µM.
On the same counts, the results for `O=C(Nc1ccc(C2CCNC2)cc1)c1ccc(C(F)(F)F)cc1` (racemic) [Example 18, (RS)—N-(4-Pyrrolidin-3-yl-phenyl)-4-trifluoromethyl-benzamide hydrochloride] are 0.0011 µM and 0.0036 µM.
On the same counts, the results for `O=C(Nc1ccc(C2CCNC2)cc1)c1ccc(Cl)cc1Cl` (racemic) [Example 19, (RS)-2,4-Dichloro-N-(4-pyrrolidin-3-yl-phenyl)-benzamide hydrochloride] are 0.0035 µM and 0.0189 µM.
`O=C(Nc1ccc(C2CCNC2)cc1)c1cccc(Cl)c1` (racemic) [Example 20, (RS)-3-Chloro-N-(4-pyrrolidin-3-yl-phenyl)-benzamide hydrochloride]: the Ki in assay [1] (setting [3]) was found to be 0.0005 µM; in assay [2] (setting [4]) it was 0.0077 µM.
As for `CN(C(=O)Oc1ccccc1)c1ccc(C2CCNC2)cc1` (racemic) [Example 22, (RS)-Methyl-(4-pyrrolidin-3-yl-phenyl)-carbamic acid phenyl ester], the values for the Ki in assay [1] and in assay [2] were 0.526 µM and 2.37 µM, respectively.
On the same counts, the results for `O=C(Nc1ccc(C2CCNC2)cc1)Oc1ccc(Cl)cc1` (racemic) [Example 23, (RS)-(4-Pyrrolidin-3-yl-phenyl)-carbamic acid 4-chloro-phenyl ester hydrochloride] are 0.0022 µM and 0.0025 µM.
Turning to `O=C(Nc1ccc(C2CCNC2)cc1)Nc1ccc(Cl)nc1` (racemic) [Example 26, (RS)-1-(6-Chloro-pyridin-3-yl)-3-(4-pyrrolidin-3-yl-phenyl)-urea hydrochloride], the Ki in assay [1] (setting [3]) was determined as 0.0112 µM; in assay [2] (setting [4]) it was 0.0279 µM.
Take `O=C(Nc1ccc(C2CCNC2)cc1)Nc1ccc(C(F)(F)F)cc1` (racemic) [Example 27, (RS)-1-(4-Pyrrolidin-3-yl-phenyl)-3-(4-trifluoromethyl-phenyl)-urea hydrochloride]: the results for the Ki in assay [1] (setting [3]) and in assay [2] (setting [4]) were 0.0013 µM and 0.0015 µM, respectively.
`CN1CCC(c2ccc(NC(=O)c3ccc(Cl)cc3)cc2)C1` (racemic) [Example 32, (RS)-4-Chloro-N-[4-(1-methyl-pyrrolidin-3-yl)-phenyl]-benzamide]: the Ki in assay [1] (setting [3]) stood at 0.0005 µM; in assay [2] (setting [4]), 0.0858 µM.
The corresponding values for `O=C(Nc1ccc(C2CCN(Cc3ccccc3)C2)cc1)c1ccc(Cl)cc1` (racemic) [Example 34, (RS)—N-[4-(1-Benzyl-pyrrolidin-3-yl)-phenyl]-4-chloro-benzamide] are 0.0269 µM and 0.214 µM.
The corresponding values for `CCC(C(=O)Nc1ccc(C2CCNC2)cc1)c1ccccc1` (racemic) [Example 38, (RS)-2-Phenyl-N—((RS)-4-pyrrolidin-3-yl-phenyl)-butyramide] are 0.0407 µM and 0.0606 µM.
On to `COc1ccc(C(=O)Nc2ccc(C3CCNC3)cc2)cc1` (racemic) [Example 183, (RS)-4-Methoxy-N-(4-(pyrrolidin-3-yl)phenyl)benzamide hydrochloride], for which the Ki in assay [1] (setting [3]) worked out at 0.0526 µM.
The same measure, in the same setting: as for `O=C(Nc1ccc(C2CCCNC2)cc1)c1ccccc1` (racemic) [Example 184, (RS)—N-(4-(piperidin-3-yl)phenyl)benzamide hydrochloride], the figure is 0.153 µM.
